# Where “and” joins values, the source holds several entries; their conditions need not be identical. Identical values can stand only once.
# Tests used:
# [1] = system: Patients with mild to moderate ulcerative colitis; assay: Treatment of patients with ulcerative colitis (Disease Activity Index); assay type: in vivo, human
# Method: (§1) Patients with mild to moderate ulcerative colitis were evaluated for their response to treatment with medroxyprogesterone acetate. Patients in the treatment group (8 patients) received a loading dose of 1 gram of medroxyprogesterone acetate every 6 hours for 8 doses. These patients were then given 500 mg of medroxyprogesterone every 12 hours for 8 weeks.
# Disease improvement was measured using the Disease Activity Index (DAI). The DAI is a total score for stool frequency, blood in the stool, the investigator's global assessment (IGA), and the physician's evaluation of the appearance of mucosa during flexible sigmoidoscopy of the colon.
# [2] = system: TNF-α release from macrophages; assay: TNF-α release (ELISA) from spleen macrophages of treated mice; assay type: cell-based, mouse
# Method: The spleens of six of the mice from Example 1 were removed after the animals were sacrificed. Macrophages were isolated from the spleen of the medroxyprogesterone acetate or buffer control treated mice. TNF-α release from these macrophages was measured by ELISA following stimulation with either (1) rat anti-mouse macrophage Fc receptor antibody 2.4G2 and F(ab′)2 IgG goat anti-rat antibody, or (2) phorbol myristate acetate (“PMA”), a phorbol ester. The effect of medroxyprogesterone acetate on TNF-α release is illustrated in Table 2.
# [3] = system: Patients with mild to moderate Crohn's disease; assay: Treatment of patients with Crohn's disease (CDAI); assay type: in vivo, human
# Method: as §1, with “moderate Crohn's disease” for “moderate ulcerative colitis”, “with […]” for “with medroxyprogesterone”, “group (12” for “group (8”, “patients) recieved” for “patients) received”
# Disease improvement was measured using the Crohn's Disease Activity Index (CDAI). The CDAI score for a patient was calculated by multiplying the numerical value for each variable by multiplication factor indicated for that variable, and totaling all of the resultant values, as shown in Table 5. A score below 150 indicated remission and a score above 450 indicated severe disease. In order to enter the study, patients were required to have a total CDAI score of 200 to 400 at baseline.
# Disease remission was defined as a CDAI score of 150 or below. Disease response was defined as either a decrease of 70 or greater in the CDAI or disease remission.
# [4] = system: lymphocytes infiltrating the large bowel lamina propria; assay: scid mouse model of Inflammatory Bowel Disease: lymphocytes infiltrating the large bowel lamina propria; assay type: in vivo, scid C.B.-17 mice; conditions: for effect on lymphocyte infiltration into the bowel (in words): compared to buffer control; for effect on lymphocyte infiltration into the bowel (in words) / CD4+ Lymphocytes, Average / CD4+ as a percent of total Lymphocytes, Average / Total Lymphocytes, Average: 25 mg/kg orally each day; for CD4+ Lymphocytes, Average / CD4+ as a percent of total Lymphocytes, Average / Total Lymphocytes, Average: group average; for CD4+ Lymphocytes / CD4+ as a percent of total Lymphocytes / Total Lymphocytes: individual mouse, 25 mg/kg orally each day until sacrifice, lamina propria, 25 mg/kg
# Text: The scid (severe combined immunodeficient) C.B.-17 line of mice provide an effective model of Inflammatory Bowel Disease. The disease state in these mice is triggered by the intraperitoneal injection of CD4+ T cells from a normal BALB/C mouse. The induced disease is characterized by intestinal inflammation in the large intestine, leukocytic infiltrates into the mucosa, submucosa, and mucularis, epithelial cell hyperplasia, loss of mucin-secreting cells, and ulcers with deep fissures, and diarrhea. In the mouse model, CD4+ T cells and macrophages infiltrate the bowel. The scid mouse is recognized by the art as a model for IBD. Powrie et al., Inhibition of Th1 Responses Prevents Inflammatory Bowel Disease in scid Mice Reconstituted with CD45RBhi CD4+ T Cells, Immunity 1:553-562 (1994).
# 500,000 to 1×10^6 T cells derived from the lymph nodes of normal BALB/C mice were injected intraperitoneally into scid mice 6 weeks prior to sacrifice. 2 days before lymphocyte administration, treatment of the scid mice began with buffer control, medroxyprogesterone acetate, or 17-hydroxyprogesterone. The treatment mice (5 in each group) received 25 mg/kg of drug orally each day until sacrifice.
# After sacrifice, lamina propria (bowel wall) lymphocytes were isolated from each animal. The total number of lymphocytes, number of CD4+ lymphocytes, and the percent of CD4+ lymphocytes was determined. CD4+ lymphocytes were identified by using a first antibody directed to CD4, and a second antibody directed to the first antibody. The second antibody was tagged with fluorescein, which lights up as green in a flow cytometer, identifying which lymphocytes are the CD4+ form. Lymphocyte infiltration into the bowel is a predictor of the progress of the disease because lymphocytes are involved in the inflammatory response leading to damage of the bowel wall.
# [5] = system: IL-6 release from macrophages; assay: IL-6 release (ELISA) from spleen macrophages of treated mice; assay type: cell-based, mouse
# Method: The spleens of four of the mice from Example 1 were removed after the animals were sacrificed. Macrophages were isolated from the spleen of the medroxyprogesterone acetate or buffer control treated mice. IL-6 release from these macrophages was measured by ELISA following stimulation with rat anti-mouse macrophage Fc receptor antibody 2.4G2 and F(ab′)2 IgG goat anti-rat antibody. The effect of medroxyprogesterone acetate on IL-6 release is illustrated in Table 3.
# [6] = individual mouse, stimulation 2.4G2 and F(ab′)2 IgG anti-rat, listed as MPA
compound,measurement,setting,value
"CC(=O)O[C@]1(C(C)=O)CC[C@H]2[C@@H]3C[C@H](C)C4=CC(=O)CC[C@]4(C)[C@H]3CC[C@@]21C [Medroxyprogesterone Acetate, pregn-4-ene-3,20-dione, 17-(acetyloxy)-6-methyl-, (6α)-]",patients showing improvement with treatment,"[1]; 8 weeks, 8 patients",Five out of eight
same,Improvement (reduction of one or more units in DAI score at end of study vs baseline),"[1]; individual patient, 1 g every 6 hours for 8 doses, then 500 mg every 12 hours for 8 weeks",Yes (5×) and No (3×)
same,non-responders with reduction in symptoms and complaints during initial treatment,[1]; of the 3 patients who did not respond at end of 8 week study,2 patients
same,TNF-α Measurement,[2]; [6],2314 pg/mL and 27563 pg/mL and 1843 pg/mL
same,TNF-α Repeat Measurement,[2]; [6],1026 pg/mL and 0 pg/mL
same,TNF-α Repeat Measurement,"[2]; individual mouse, stimulation PMA for Repeat Measurement",0 pg/mL
same,effect on TNF-α release from macrophages (in words),[2]; macrophages from treated mice,may be inhibiting TNF-α release from macrophages
same,adverse event leading to drop out,[3]; 12 patients treated,One patient dropped out for a minor adverse event (fatigue)
same,Remissions (CDAI score of 150 or below),"[3]; Completers (10 patients), 8 weeks",7
same,effect on lymphocyte infiltration into the bowel (in words),[4],effective in decreasing lymphocyte infiltration into the bowel
same,"CD4+ Lymphocytes, Average",[4],3.8 1 × 106
same,"CD4+ as a percent of total Lymphocytes, Average",[4],81.4%
same,"Total Lymphocytes, Average",[4],4.5 1 × 106
same,CD4+ Lymphocytes,[4],1.6 1 × 106 and 4.1 1 × 106 and 1.3 1 × 106 and 3.0 1 × 106 and 9.2 1 × 106
same,CD4+ as a percent of total Lymphocytes,[4],81% and 87% and 65% and 83% and 91%
same,Total Lymphocytes,[4],2 1 × 106 (2×) and 4.8 1 × 106 and 3.6 1 × 106 and 10.2 1 × 106
same,IL-6 Measurement,[5]; [6],"298,940 and 266,557"
same,effect on IL-6 release from macrophages (in words),[5]; macrophages from treated mice,may be inhibiting IL-6 release from macrophages
CC(=O)[C@@]1(O)CC[C@H]2[C@@H]3CCC4=CC(=O)CC[C@]4(C)[C@H]3CC[C@@]21C [17-hydroxyprogesterone],effect on lymphocyte infiltration into the bowel (in words),[4],did not work in treating the mice
same,"CD4+ Lymphocytes, Average",[4],16.3 1 × 106
same,"CD4+ as a percent of total Lymphocytes, Average",[4],88.0%
same,"Total Lymphocytes, Average",[4],18.4 1 × 106
same,CD4+ Lymphocytes,[4],8.9 1 × 106 and 1.6 1 × 106 and 15 1 × 106 and 23 1 × 106
same,CD4+ as a percent of total Lymphocytes,[4],89% and 81% and 93% and 91%
same,Total Lymphocytes,[4],10 1 × 106 and 2 1 × 106 and 16.5 1 × 106 and 25.2 1 × 106

# Source: patent publication US6610674B1, “Method of treating inflammatory conditions with progesterone analogs” (University of Pennsylvania, priority 1999, dated 2003)
